Measured values as given in patent US20250276063A1, “PLACENTA-DERVIED NK CELLS AS A SENOL YTIC FOR THERAPEUTIC AND OTHER USES” (Celularity Inc., priority 2021, published 2025).

Key:
CD34+ cells = experiment: NK cell expansion from CD34+ cells cultured with compound, Day 35; format: cell-based, human; settings: for supported NK expansion: compound 10 μM during the first 14 days of the culture; for expansion compared to SR1 at Day 35: compound 10 μM, SR1 10 μM positive control
Description: UCB CD34+ cells were cultivated in presence of cytokines including thrombopoietin, SCF, Flt3 ligand, IL-7, IL-15 and IL-2 for 35 days to produce three-stage NK cells, as described in Example 1. Multi-color flow cytometry was used to determine the phenotypic characteristics of three-stage NK cells.
(§1) For biological testing, the compounds were provided to culture to evaluate their effects on NK cell expansion and differentiation. Specifically, donors of CD34+ cells (StemCell Technology) were thawed and expanded in vitro following NK culture protocol. During the first 14 days of the culture, each CRL compounds was dissolved in DMSO and added to the culture at 10 μM concentration. SR1 (at 10 μM) served as a positive control compound, while DMSO alone without any compound served as a negative control. At the end of the culture on Day 35, cell expansion, natural killer (NK) cell differentiation and cytotoxicity of the cells against K562 tumor cell line were characterized. Due to the large number of the compounds, the testing was performed in two experiments, CRL1-11 and CRL 12-22. The same donors were used for each experiment. Positive and negative controls were also included in both experiments.

K562 tumor cells = experiment: Cytotoxicity assay of compound cultured cells against K562 tumor cells; format: cell-based; settings: 10:1 effector to target ratio; both donors
Protocol: as §1
Cytotoxicity assay was run using compound cultured cells against K562 tumor cells at 10:1 effector to target ratio (FIG. 5) to evaluate cell functions.

SMILES | supported NK expansion (CD34+ cells) | expansion compared to SR1 at Day 35 (CD34+ cells) | killing activities compared to cells cultured with SR1 (K562 tumor cells)
CCC(C)Nc1cc(-c2cncc(C#N)c2)nc(NCCc2c[nH]c3ccccc23)n1 (centres unmarked) [CRL7, 5-(2-((2-(1H-indol-3-yl)ethyl)amino)-6-(sec-butylamino)pyrimidin-4-yl)nicotinonitrile] | all the compounds except CRL7 and CRL13 supported PNK-007 expansion and differentiation | – | –
CCC(C)Nc1nc(NCCc2c[nH]c3ccccc23)c2ccccc2n1 (centres unmarked) [CRL13, N^4-(2-(H-indol-3-yl)ethyl)-N^2-(sec-butyl)quinazoline-2,4-diamine] | all the compounds except CRL7 and CRL13 supported PNK-007 expansion and differentiation | – | –
CC(C)c1csc2c(NCCc3c[nH]c4ccccc34)nc(-c3cncc(C#N)c3)nc12 [CRL17, 5-(4-((2-(1H-indol-3-yl)ethyl)amino)-7-isopropylthieno[3,2-d]pyrimidin-2-yl)nicotinonitrile] | – | slightly less expansion compared to SR1 | increased killing activities of the cells
CC(C)c1csc2c(NCCc3c[nH]c4ccccc34)nc(-c3cncc(F)c3)nc12 [CRL18, N-(2-(1H-indol-3-yl)ethyl)-2-(5-fluoropyridin-3-yl)-7-isopropylthieno[3,2-d]pyrimidin-4-amine] | – | slightly less expansion compared to SR1 | increased killing activities of the cells
Fc1cncc(-c2nc(NCCc3c[nH]c4ccccc34)c3occc3n2)c1 [CRL19, N-(2-(1H-indol-3-yl)ethyl)-2-(5-fluoropyridin-3-yl)furo[3,2-d]pyrimidin-4-amine] | supported cell expansion the best | – | –
Cc1cncc(-c2nc(NCCc3c[nH]c4ccccc34)c3occc3n2)c1 [CRL20, N-(2-(1H-indol-3-yl)ethyl)-2-(5-methylpyridin-3-yl)furo[3,2-d]pyrimidin-4-amine] | supported cell expansion the best | – | –
Cc1cncc(-c2nc(NCCc3c[nH]c4ccccc34)c3scc(C(C)C)c3n2)c1 [CRL21, N-(2-(1H-indol-3-yl)ethyl)-7-isopropyl-2-(5-methylpyridin-3-yl)thieno[3,2-d]pyrimidin-4-amine] | – | slightly less expansion compared to SR1 | increased killing activities of the cells
N#Cc1cncc(-c2nc(NCCc3c[nH]c4ccccc34)c3occc3n2)c1 [CRL22, 5-(4-((2-(1H-indol-3-yl)ethyl)amino)furo[3,2-d]pyrimidin-2-yl)nicotinonitrile] | supported cell expansion the best | – | –
